Read-outs that look alike come from different tables or passages of the source.
Columns and labels:
[1] = Hydroxyl radical scavenging rate (Fenton colorimetric method); assay type: biochemical
Text: IV. Detection of hydroxyl radical scavenging rate (Fenton colorimetric method)
H2O2/Fe^2+ produces a hydroxyl radical through a Fenton reaction, Fe^2+ is oxidized into Fe^3+, and red phenanthroline-Fe^2+ is oxidized into colorless phenanthroline-Fe^3+, so that the maximum absorption peak of the phenanthroline-Fe^2+ disappears at 536 nm. The absorbance change at 530-540 nm may be determined by a spectrophotometer. Thus, content change of the hydroxyl radical can be calculated, that is, the hydroxyl radical scavenging rate or scavenging capacity of the sample can be calculated.
• 1. 0.2 g of mycelia powder was weighed; 2 mL of purified water was added; the mycelia powder and the water were uniformly mixed; the mixture was placed at a room temperature for standing for 4 h; the solution was centrifuged at 10000 rpm for 10 min; and the supernatant was taken for later use. • 2. Other samples served as reference solutions.
The spectrophotometer was started for preheating for 30 min; the wavelength was adjusted to 536 nm; and the purified water was subjected to zero setting.
A blank tube, an undamaged tube, a damaged tube, a control tube and a determination tube were set according to the following table; the solutions were added in sequence; and the solutions were uniformly mixed and placed in a water bath at 37°C for 1 h.
(§1) Calculation: To-be-tested sample•OH scavenging rate (%)=[(A3-A3')-(A2-A0)]/(A1-A2)×100% • V. Detection methods of adenosine, mannitol, total amino acid content and water were conducted according to the detection method under the fermented Cordyceps sinensis. mycelia powder item in accordance with National Drug Standards. • VI. Detection method of tyrosinase inhibition rate • 1. Preparation of a solution: • (1) Preparation of a PBS: 3.4022 g of potassium dihydrogen phosphate and 5.7055 g of potassium phosphate dibasic trihydrate were respectively weighed and then dissolved with an appropriate amount of distilled water; the volume was fixed in a 1000 mL volumetric flask; the solution was shaken up to obtain the PBS having a pH value of 6.81 and a concentration of 0.05 mol·L-1, and the PBS was kept in a dark place at 4°C in a refrigerator. • (2) Preparation of an L-Dopa solution: 0.0395 g of L-Dopa was precisely weighed and dissolved with the prepared PBS; the solution was transferred into a 100 mL volumetric flask; the volume was fixed; the solution was shaken up and subjected to ultrasonic treatment to obtain the L-Dopa solution of 2 mmol·L-1. The solution was used when prepared. • (3) Preparation of a TYR ([…]) solution: 25 KU of the TYR was totally dissolved with a small amount of PBS; the solution was repeatedly washed for several times; the washing liquid was transferred into the […] volumetric flask; the volume was fixed with the PBS; the liquid was shaken up to obtain a TYR solution of 250 U·mL-1; then the mother solution was diluted to 125 U·mL-1; and the solution was preserved at -20°C in the refrigerator for later use. • 2. Preparation of samples: 250 mg/ml of an erythritol mother solution: 2.5 g of erythritol was weighed, and 10 ml of purified water was added; 250 mg/ml of a mannitol mother solution: 7.5 g of mannitol was weighed, 30 ml of purified water was added, the mixture was heated and dissolved; and the solution was diluted into the needed concentration according to each reaction system and then added into the detection system. • 3. Determination of the sample on TYR inhibitory activity

[2] = tested on: tyrosinase; assay: Tyrosinase inhibition rate (L-Dopa substrate, absorbance at 475 nm); assay type: biochemical; details: combination of both amounts, negative = activation rate
Protocol: as §1
The reaction system was shown as Table 4.2. […] A calculation formula of the inhibition rate was as follows: when the calculated result was negative, the absolute value of the negative was an activation rate.
Inhibition rate = ((A1−A2)−(A3−A4))/(A1 −A2) × 100% [formula] • A1: absorbance of a reaction solution with TYR instead of the sample determined at 475 nm; • A2: absorbance of a reaction solution without the sample nor the TYR determined at 475 nm; • A3: absorbance of a reaction solution with both the sample and the TYR determined at 475 nm; • A4: absorbance of a reaction solution with the sample instead of the TYR determined at 475 nm.

[3] = in water, at 25°C; cited from earlier work
[4] = cited from earlier work
[5] = cited from earlier work; remark: listed apart in the source
[6] = EGT 0.4 ml (0.02 mg/ml), Adenosine 0.4 ml (0.02 mg/ml), combination 0.2 ml (0.02 mg/ml) + 0.2 ml (0.02 mg/ml)
[7] = Erythritol 12.5 mg (6.25 mg/ml), Adenosine 0.15 ml (0.75 mg/ml), combination of both amounts
[8] = Erythritol 12.5 mg (6.25 mg/ml), Adenosine 0.15 ml (2.5 mg/ml), combination of both amounts
[9] = Erythritol 0.75 mg (3.75 mg/ml), Mannitol 2.5 mg (12.5 mg/ml), combination of both amounts
[10] = Erythritol 1.5 mg (7.5 mg/ml), Mannitol 2.5 mg (12.5 mg/ml), combination of both amounts
[11] = Erythritol 1.75 mg (8.75 mg/ml), Mannitol 2.5 mg (12.5 mg/ml), combination of both amounts
[12] = Erythritol 2 mg (10 mg/ml), Mannitol 2.5 mg (12.5 mg/ml), combination of both amounts
[13] = Erythritol 2.5 mg (12.5 mg/ml), Mannitol 2.5 mg (12.5 mg/ml), combination of both amounts
[14] = Erythritol 0.75 mg (3.75 mg/ml), Mannitol 1.25 mg (6.25 mg/ml)
[15] = Erythritol 1.25 mg (6.25 mg/ml), Mannitol 1.25 mg (6.25 mg/ml)
[16] = Erythritol 1.75 mg (8.75 mg/ml), Mannitol 2.5 mg (12.5 mg/ml)

Nc1ncnc2c1ncn2[C@@H]1O[C@H](CO)[C@@H](O)[C@H]1O [Adenosine, adenosine]
OH clearance rate (%) [1, 6]: 0.00%
OH clearance rate (%) [1, 7]: 10.57%
OH clearance rate (%) [1, 8]: 7.17%

OC[C@@H](O)[C@@H](O)[C@H](O)[C@H](O)CO [Mannitol, D-mannitol]
OH clearance rate (%) [1, 9]: 17.91%
OH clearance rate (%) [1, 10]: 7.48%
OH clearance rate (%) [1, 11]: 7.48%
OH clearance rate (%) [1, 12]: 7.48%
OH clearance rate (%) [1, 13]: 7.48%
Tyrosinase inhibition rate (%) [2, 14]: 3.62%
Tyrosinase inhibition rate (%) [2, 15]: 2.51%
Tyrosinase inhibition rate (%) [2, 16]: 2.51%

OCC(O)C(O)CO (centres unmarked) [Erythritol, 1,2,3,4-butanetetraol]
solubility [3]: 37%
absorbed in small intestine via passive diffusion ([4]; after ingestion by a human body): 80-90%
absorbed erythritol oxidized into erythrose in blood ([4]; human body, share of the absorbed amount): 5-10%
OH clearance rate (%) [1, 9]: 5.14%
OH clearance rate (%) [1, 10]: 2.44%
OH clearance rate (%) [1, 11]: 11.76%
OH clearance rate (%) [1, 12]: 20.15%
OH clearance rate (%) [1, 13]: 11.45%
OH clearance rate (%) [1, 7]: -8.17%
OH clearance rate (%) [1, 8]: -5.8%
intestinal tolerance ([5]; children aged 4-6 years, beverages containing 15 g): the diarrhea and/or a severe intestinal symptom is not observed
intestinal tolerance ([5]; healthy volunteers aged 18-24 years, 20-35 g in a liquid form): good intestinal tolerance without any adverse symptom
intestinal tolerance ([5]; healthy volunteers aged 18-24 years, intake of 50 g): symptoms such as diarrhea and nausea were observed
Tyrosinase inhibition rate (%) [2, 14]: -1.06%
Tyrosinase inhibition rate (%) [2, 15]: 1.71%
Tyrosinase inhibition rate (%) [2, 16]: 6.39%

C[N+](C)(C)[C@@H](Cc1c[nH]c(=S)[nH]1)C(=O)[O-] [EGT, Ergothioneine]
OH clearance rate (%) [1, 6]: -5.70%
OH clearance rate (%) ([1]; EGT 0.4 ml (0.05 mg/ml), Erythritol 0.4 ml (0.05 mg/ml), combination 0.2 ml (0.05 mg/ml) + 0.2 ml (0.05 mg/ml)): 2.08%
